How the values were obtained:
[1] = biological target: VLA-4-IgG chimeric protein (Homo sapiens, UniProt P05556+P13612); experiment: Inhibition of binding between CS-1 peptide and VLA-4-IgG chimeric protein; details: binding of VLA-4-IgG chimeric protein to immobilized CS-1 peptide; compound preincubated 20 minutes; read-out: Inhibition Activity(IC50 : nM)
Procedure: The adhesion-inhibition activity of the compound of the present invention against VLA-4 may be examined by using an adhesion assay system in which the adhesion between VLA-4-expressing cells such as Ramos cells and Jurkat cells, and fibronectin or a fragment thereof, e.g., a peptide containing CS-1 sequence (Gly Pro Glu Ile Leu Asp Val Pro Ser Thr) (hereinafter referred to as "CS-1 peptide") immobilized on an immunoplate is measured. Alternatively, a binding assay system in which the binding of the VLA-4 protein to the fibronectin or a fragment thereof such as CS-1 peptide immobilized on an immunoplate is measured may be employed. In the present invention, the inhibition assay of the compound is preferably measured by a binding assay system which measures the binding between a chimeric protein of VLA-4 and immunoglobulin (VLA-4-IgG chimeric protein) and CS-1 peptide (Japanese patent application No. H9-234544), although the method of measuring the inhibition activity is not restricted to this method. The term "VLA-4-IgG chimeric protein" herein means the heterodimer composite molecule in which a chimeric protein between α4 of VLA-4 and immunoglobulin (hereinafter referred to as "VLAα4·IgG chimeric protein), and a chimeric protein between β1 of VLA-4 and immunoglobulin (hereinafter referred to as "VLAβ1·IgG chimeric protein) are associated. As the immunoglobulin, although heavy chain or light chain of IgG, IgM or the like may be employed, in the present invention, IgG1 heavy chain is used. When testing the inhibition activity of the compound, it is preferred to preliminarily mix the VLA-4-IgG chimeric protein and the test compound.
Effects of Compounds for Inhibition of Binding Between CS-1 Peptide and VLA-4-IgG
A conjugate between a peptide (Gys Leu His Gly Pro Glu Ile Leu Asp Val Pro Ser Thr) containing CS-1 sequence and rabbit IgG (Sigma) was prepared by the reported method (Humphries, M.J. et al. J. Biol.Chem., 262, 6886-6892 (1987)). The obtained conjugate was diluted with phosphate buffer (hereinafter referred to as "PBS(-)", NISSUI) and the resulting solution was placed in wells of a 96-well immunoplate (NUNC) in an amount of 100 µl/well, followed by leaving the solution to stand at 4°C for 16 hours to immobilize the conjugate.
Then each well was washed twice with PBS(-), and a PBS solution containing 1% BSA heat-treated at 80°C for 10 minutes was placed in each well in an amount of 300 µl/well. The immunoplate was left to stand at 4°C for 3 hours, and then the solution in each well was removed by aspiration.
After preliminarily allowing each compound to react with VLA-4-IgG chimeric protein (100 µl) at room temperature for 20 minutes, the resulting solution was allowed to react with CS-1 peptide in each well at 30°C for 3 hours. Thereafter, non-bound VLA-4-IgG chimeric protein was removed by aspiration and each well was washed twice with 0.1% BSA-containing TBS buffer (150 mM NaCl,25 mM Tris-HCI, 1 mM MnCl2 pH 7.4). To the bound VLA-4-IgG chimeric protein, biotin-labeled anti-human IgG antibody (Vector) as an primary antibody was added, and then avidin-labeled horse radish peroxidase (Sigma) as a secondary antibody was added, and the reaction was allowed to occur. After the reaction, o-phenylenediamine as a substrate was added to color the solution, and the absorbance at 490 nm was measured. From the absorbance, the binding-inhibition activity of each test compound was determined.

Auricular Edema Model = experiment: Auricular edema model (IgE anti-DNP passive sensitization, DNFB induction); assay type: in vivo, BLAB/c mouse
Procedure: To each BLAB/c mouse (female, 7 weeks old, JAPAN CHARLES RIVER), mouse IgE anti-DNP antibody (5 mg/kg, SEIKAGAKU CORPORATION) was intravenously administered to passively sensitize the mouse. Twenty four hours later, 20 µl of 0.38% 2,4- dinitrofluorobenzene (DNFB, Aldrich) dissolved in acetone:olive oil (4:1) was applied to the auricle of the sensitized mouse to induce inflammation. The thickness of the auricle was measured until 24 hours after the induction with Digimatic Indicator (Mitutoyo) and the ear swelling rate was calculated according to the following equation: Ear Swelling Rate (%) = (A - B)/B x 100 [formula] • A: Thickness of right auricle at 24 hours after induction • B: Thickness of right auricle before induction
Twenty four hours after the induction, the auricle was cut off and fixed with formalin. After the fixation, continuous sections of the auricle were prepared and stained by Luna staining. The number of eosinophils in each section was counted and the total of them was defined as the number of eosinophils accumulated in the auricle.
Compound No. 140 used as the test compound was dissolved in physiological saline and the solution was intravenously administered totally 3 times, i.e., at the time of sensitization, at 8 hours and 24 hours after sensitization, at a dose of 400 mg/kg per each time. Further, to examine the effect of the compound when applied to the auricle, the compound was dissolved in ethanol, and the solution was applied to the auricle totally twice, i.e., at 8 hours after sensitization and at 1 hour before the induction, at a dose of 0.3 mg/ear. To the background group and the control group, physiological saline was intravenously administered and ethanol was applied, respectively. The experiment was carried out using 4 to 6 mice in each group. The results are shown in terms of mean ± standard error.
Twenty four hours after the induction, the auricle was cut off and fixed with formalin. After the fixation, continuous sections of the auricle were prepared and stained by Luna staining. The number of eosinophils in each section was counted. Compound No. 143 used as the test compound was dissolved in physiological saline and the solution was topically or systemically administered totally 3 times, i.e., at the time of sensitization, at 8 hours and 24 hours after sensitization. The experiment was carried out using 4 to 6 mice in each group. The results are shown in terms of mean ± standard error.

VLA-4-IgG chimeric protein, sequence (P13612 with tags, fused parts or gaps limits assumed): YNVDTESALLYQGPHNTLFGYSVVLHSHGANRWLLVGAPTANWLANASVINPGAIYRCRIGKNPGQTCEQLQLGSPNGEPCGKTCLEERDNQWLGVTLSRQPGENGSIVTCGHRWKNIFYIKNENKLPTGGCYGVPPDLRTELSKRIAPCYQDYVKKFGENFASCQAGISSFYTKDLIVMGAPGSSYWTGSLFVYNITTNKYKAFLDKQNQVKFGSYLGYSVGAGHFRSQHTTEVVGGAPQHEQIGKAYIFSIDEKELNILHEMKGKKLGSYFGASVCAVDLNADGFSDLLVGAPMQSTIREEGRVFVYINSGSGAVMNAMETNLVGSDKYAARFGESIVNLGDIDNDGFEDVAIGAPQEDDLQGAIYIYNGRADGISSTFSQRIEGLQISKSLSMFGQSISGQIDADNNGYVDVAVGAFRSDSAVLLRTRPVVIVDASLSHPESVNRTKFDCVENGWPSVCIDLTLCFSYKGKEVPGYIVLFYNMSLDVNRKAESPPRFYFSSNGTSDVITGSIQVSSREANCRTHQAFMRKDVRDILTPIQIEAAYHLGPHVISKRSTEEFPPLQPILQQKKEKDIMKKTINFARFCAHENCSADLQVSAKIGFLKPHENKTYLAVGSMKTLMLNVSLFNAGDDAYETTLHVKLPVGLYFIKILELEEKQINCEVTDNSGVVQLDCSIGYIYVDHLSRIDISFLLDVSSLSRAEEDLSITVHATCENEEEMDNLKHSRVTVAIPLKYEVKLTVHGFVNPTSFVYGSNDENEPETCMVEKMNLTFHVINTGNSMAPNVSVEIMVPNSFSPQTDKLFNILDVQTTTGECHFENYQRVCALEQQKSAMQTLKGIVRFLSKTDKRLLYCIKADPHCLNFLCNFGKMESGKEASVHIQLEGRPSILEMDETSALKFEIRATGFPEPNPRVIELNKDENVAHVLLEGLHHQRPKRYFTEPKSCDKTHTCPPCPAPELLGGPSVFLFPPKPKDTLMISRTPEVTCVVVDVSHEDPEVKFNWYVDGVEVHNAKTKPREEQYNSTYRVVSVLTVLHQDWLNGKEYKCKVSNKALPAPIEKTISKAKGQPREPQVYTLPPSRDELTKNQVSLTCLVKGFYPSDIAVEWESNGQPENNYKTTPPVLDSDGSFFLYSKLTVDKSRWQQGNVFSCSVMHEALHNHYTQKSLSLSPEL
VLA-4-IgG chimeric protein, sequence (P05556 with tags, fused parts or gaps limits assumed): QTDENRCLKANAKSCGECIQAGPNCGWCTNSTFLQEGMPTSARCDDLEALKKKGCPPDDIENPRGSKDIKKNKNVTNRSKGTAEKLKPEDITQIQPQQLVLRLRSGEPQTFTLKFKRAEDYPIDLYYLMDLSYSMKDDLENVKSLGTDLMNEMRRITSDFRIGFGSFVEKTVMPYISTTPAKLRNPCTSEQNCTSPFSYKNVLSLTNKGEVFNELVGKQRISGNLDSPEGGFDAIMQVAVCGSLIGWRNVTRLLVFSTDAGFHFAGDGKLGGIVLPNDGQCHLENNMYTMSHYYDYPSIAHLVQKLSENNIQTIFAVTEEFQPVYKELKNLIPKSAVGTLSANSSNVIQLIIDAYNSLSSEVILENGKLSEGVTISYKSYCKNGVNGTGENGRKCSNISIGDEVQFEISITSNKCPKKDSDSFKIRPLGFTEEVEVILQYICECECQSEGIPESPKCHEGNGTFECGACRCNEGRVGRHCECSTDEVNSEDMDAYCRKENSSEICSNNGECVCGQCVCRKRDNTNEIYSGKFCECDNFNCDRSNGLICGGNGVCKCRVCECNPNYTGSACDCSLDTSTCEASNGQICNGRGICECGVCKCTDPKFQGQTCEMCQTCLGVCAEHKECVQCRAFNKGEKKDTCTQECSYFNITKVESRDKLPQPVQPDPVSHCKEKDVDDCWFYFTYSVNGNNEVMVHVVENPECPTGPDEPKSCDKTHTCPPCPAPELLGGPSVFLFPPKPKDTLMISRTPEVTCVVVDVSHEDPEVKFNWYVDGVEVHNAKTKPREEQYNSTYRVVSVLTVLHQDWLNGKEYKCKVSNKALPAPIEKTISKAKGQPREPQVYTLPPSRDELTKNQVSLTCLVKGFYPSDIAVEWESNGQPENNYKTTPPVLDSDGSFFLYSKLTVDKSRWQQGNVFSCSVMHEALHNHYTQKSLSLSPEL

IC50 [1]: 1800 nM
Compound: CC(C)(C)CC(=O)N[C@@H](CSSC[C@H](NC(=O)CC(C)(C)C)C(=O)O)C(=O)O [Example 140, 3-((2(R)-carboxy-2(R)-(3,3-dimethylbutanoylamino)ethyl)disulfanyl)-2(R)-(3,3-dimethylbutanoylamino)propionic acid]
swelling of ear induced by application of the antigen (Auricular Edema Model; Compound No. 140: 400 mg/kg intravenously 3 times or 0.3 mg/ear applied to auricle): inhibited
accumulation of eosinophils to auricle induced by application of the antigen (Auricular Edema Model; Compound No. 140: 400 mg/kg intravenously 3 times or 0.3 mg/ear applied to auricle, Fig. 1, 400 mg/kg): inhibits
Ear Swelling Rate (%) (Auricular Edema Model; applied to auricle, 0.3 mg/ear, twice, 24 hours after induction): 26.12%
Inhibition Rate (%) (Auricular Edema Model; swelling of ear, applied to auricle, 0.3 mg/ear, twice): 40.3%
